Measured values from ChEMBL document CHEMBL3244230, “Synthesis and gastric antisecretory properties of 15-deoxy-16-hydroxyprostaglandin E analogues” (1977).
Activity calls are given as the source filed them. The calls are words filed in the database; no cut-off is given here.

Experiments:
[1] = test system: Canis familiaris; experiment: Gastric antisecretory activity in iv dosed Mongrel dog with heidenhain pouch assessed as inhibition of histamine-induced total acid output by titrimetric method; type: functional; conditions: Canis lupus familiaris, read-out: ID50 (the source's name)
[2] = test system: Canis familiaris; experiment: Gastric antisecretory activity in Mongrel dog with heidenhain pouch assessed as inhibition of histamine-induced total acid output at 0.1 to 100 ug/kg, iv by titrimetric method relative to PGE1; type: functional, Canis lupus familiaris
[3] = test system: Canis familiaris; experiment: Gastric antisecretory activity in Mongrel dog with heidenhain pouch assessed as inhibition of histamine-induced total acid output at 30 ug/kg, iv by titrimetric method; type: functional, organism-based; conditions: Canis lupus familiaris

Row | SMILES | ED50 [1] | fold change (FC) [2] | inhibition [3]
1 | CCCCC(O)C/C=C/[C@H]1[C@H](O)CC(=O)[C@@H]1C/C=C\CCCC(=O)OC (mixture of isomers) | 4.1 µg/kg | 1.9 | –
2 | CCCCC(C)(O)C/C=C/[C@H]1[C@H](O)CC(=O)[C@@H]1C/C=C\CCCC(=O)OC (mixture of isomers) | 0.3 µg/kg | 24.9 | –
3 | CCCCC(O)C(C)(C)/C=C/[C@H]1[C@H](O)CC(=O)[C@@H]1CCCCCCC(=O)OC (mixture of isomers) | 140 µg/kg | 0.05 | –
4 | CCCCC(O)C/C=C/[C@H]1[C@H](O)CC(=O)[C@@H]1CCCCCCC(=O)OC (mixture of isomers) | 5.4 µg/kg | 0.7 | –
5 | CCCCC(C)(O)CCC[C@H]1[C@H](O)CC(=O)[C@@H]1CCCCCCC(=O)OC (mixture of isomers) | 5.9 µg/kg | 0.98 | –
6 | CCCCC(C)(O)C/C=C/[C@H]1[C@@H](O)CC(=O)[C@@H]1CCCCCCC(=O)OC (mixture of isomers) | 16.9 µg/kg | 0.21 | –
7 | CCCCC(C)(O)C/C=C\[C@H]1[C@H](O)CC(=O)[C@@H]1CCCCCCC(=O)OC (mixture of isomers) | 39.8 µg/kg | 0.17 | –
8 | CCCCCC(C)(O)C/C=C/[C@H]1[C@H](O)CC(=O)[C@@H]1CCCCCCC(=O)OC (mixture of isomers) | 0.31 µg/kg | 19.9 | –
9 | CCCCC[C@H](O)/C=C/[C@H]1[C@H](O)CC(=O)[C@@H]1CCCCCCC(=O)O [ALPROSTADIL] | 6.7 µg/kg | – | –
10 | CCCCC(C)(O)C/C=C/[C@H]1[C@H](O)CC(=O)[C@@H]1CCCCCCC(=O)OC (mixture of isomers) [MISOPROSTOL] | 0.16 µg/kg | 47.8 | –
11 | CCCCC(C)(O)C/C=C/[C@H]1CCC(=O)[C@@H]1CCCCCCC(=O)O (mixture of isomers) | 4.3 µg/kg | 1.5 | –
12 | CCCCC[C@H](O)/C=C/[C@H]1[C@H](O)CC(=O)[C@@H]1CCCCCCC(=O)OC | 3.8 µg/kg | 2.3 | –
13 | CCCC(C)(C)C(O)C/C=C/[C@H]1[C@H](O)CC(=O)[C@@H]1CCCCCCC(=O)OC (mixture of isomers) | – | – | inactive
14 | CCCCC(O)(CC)C/C=C/[C@H]1[C@H](O)CC(=O)[C@@H]1CCCCCCC(=O)OC (mixture of isomers) | 27.8 µg/kg | 0.21 | –
